According to patent US11975095B2, “Callus lysate comprising high content of callus metabolite and preparation method thereof” (BIOSPECTRUM, INC., priority 2020, dated 2024):

Experiment: Anti-oxidation: DPPH free radical scavenging
Settings: positive control at 400 μg/ml
Description: The antioxidant activity was evaluated by measuring the ability of scavenging a free radical, DPPH (1,1-diphenyl-2-picrylhydrazyl). DPPH, a radical with a color, was used to directly determine the radical scavenging ability of the sample.
50 μl of each sample of Examples 1 to 13 and Comparative Examples 1 to 5 was mixed with 1 ml of a 100 μM DPPH solution. The resultant mixture was subjected to reaction and incubation at 20° C. (room temperature) at 30 minutes. Then, the amount of the remaining DPPH was determined through the absorbance measurement at 517 nm.
Upon completion of the reaction, the free radical scavenging activity (%) of the sample was calculated according to Equation 3 below. In this regard, the positive control was 400 μg/ml of ascorbic acid, and the blank was purified water. Radical Scavenging Ability (%)={1−(absorbance of sample-added group/absorbance of sample-free group)×100} [Equation 3]

Structure (SMILES): O=C1O[C@H]([C@@H](O)CO)C(O)=C1O [Ascorbic acid]
- Free radical scavenging ability: 80.7%
